Source: ChEMBL document CHEMBL1255373, “In vitro antibacterial activity of CE-156811, a novel analog derived from hygromycin A” (2008)

Assays:
Type in all cases: functional
[1] = test system: Acinetobacter sp.; test: Antibacterial activity against Acinetobacter sp. by broth microdilution method
[2] = test system: Moraxella catarrhalis; test: Antibacterial activity against Moraxella catarrhalis clinical isolate by broth microdilution method
[3] = test system: Klebsiella aerogenes; test: Antibacterial activity against Enterobacter aerogenes clinical isolate by broth microdilution method
[4] = test system: Pseudomonas aeruginosa; test: Antibacterial activity against Pseudomonas aeruginosa clinical isolate by broth microdilution method
[5] = test system: Haemophilus influenzae; test: Antibacterial activity against Haemophilus influenzae clinical isolate by broth microdilution method
[6] = test system: Enterobacter cloacae; test: Antibacterial activity against Enterobacter cloacae clinical isolate by broth microdilution method
[7] = test system: Burkholderia cepacia; test: Antibacterial activity against Burkholderia cepacia clinical isolate by broth microdilution method
[8] = test system: Citrobacter freundii; test: Antibacterial activity against Citrobacter freundii clinical isolate by broth microdilution method
[9] = test system: Neisseria sp.; test: Antibacterial activity against Neisseria sp. by broth microdilution method
[10] = test system: Listeria monocytogenes; test: Antibacterial activity against Listeria monocytogenes clinical isolate by broth microdilution method
[11] = test system: Corynebacterium sp.; test: Antibacterial activity against Corynebacterium sp. by broth microdilution method
[12] = test system: Legionella pneumophila; test: Antibacterial activity against Legionella pneumophila clinical isolate by broth microdilution method
[13] = test system: Klebsiella pneumoniae; test: Antibacterial activity against extended-spectrum beta-lactamase producing Klebsiella pneumoniae clinical isolate by broth microdilution method
[14] = test system: Klebsiella pneumoniae; test: Antibacterial activity against Klebsiella pneumoniae clinical isolate by broth microdilution method
[15] = test system: Citrobacter koseri; test: Antibacterial activity against Citrobacter diversus clinical isolate by broth microdilution method
[16] = test system: Staphylococcus; test: Antibacterial activity against coagulase-negative Staphylococcus clinical isolate by broth microdilution method
[17] = test system: Stenotrophomonas maltophilia; test: Antibacterial activity against Stenotrophomonas maltophilia clinical isolate by broth microdilution method
[18] = test system: Shigella sp.; test: Antibacterial activity against Shigella sp. by broth microdilution method
[19] = test system: Morganella morganii; test: Antibacterial activity against Morganella morganii clinical isolate by broth microdilution method
[20] = test system: Serratia marcescens; test: Antibacterial activity against Serratia marcescens clinical isolate by broth microdilution method
[21] = test system: Escherichia coli; test: Antibacterial activity against Escherichia coli clinical isolate by broth microdilution method
[22] = test system: Salmonella sp.; test: Antibacterial activity against Salmonella sp. by broth microdilution method
[23] = test system: Streptococcus pyogenes; test: Antibacterial activity against Streptococcus pyogenes clinical isolate by broth microdilution method
[24] = test system: Proteus mirabilis; test: Antibacterial activity against Proteus mirabilis clinical isolate by broth microdilution method
[25] = test system: Klebsiella oxytoca; test: Antibacterial activity against Klebsiella oxytoca clinical isolate by broth microdilution method
[26] = test system: Providencia rettgeri; test: Antibacterial activity against Providencia rettgeri clinical isolate by broth microdilution method
[27] = test system: Proteus vulgaris; test: Antibacterial activity against Proteus vulgaris clinical isolate by broth microdilution method
[28] = test system: Staphylococcus aureus; test: Antibacterial activity against linezolid-resistant Staphylococcus aureus 01A1221 by broth microdilution method
[29] = test system: Enterococcus faecium; test: Antibacterial activity against linezolid-resistant Enterococcus faecium 03B1074 by broth microdilution method
[30] = test system: Enterococcus faecalis; test: Antibacterial activity against linezolid-resistant Enterococcus faecalis 03A1128 by broth microdilution method
[31] = test system: Staphylococcus epidermidis; test: Antibacterial activity against methicillin-susceptible Staphylococcus epidermidis clinical isolate by broth microdilution method
[32] = test system: Enterococcus faecium; test: Antibacterial activity against linezolid-resistant Enterococcus faecium 03B1076 by broth microdilution method
[33] = test system: Enterococcus faecium; test: Antibacterial activity against linezolid-resistant Enterococcus faecium 03B1073 by broth microdilution method
[34] = test system: Enterococcus faecalis; test: Antibacterial activity against vancomycin-resistant Enterococcus faecalis clinical isolate by broth microdilution method
[35] = test system: Enterococcus faecium; test: Antibacterial activity against linezolid-resistant Enterococcus faecium 03B1077 by broth microdilution method
[36] = test system: Streptococcus pneumoniae; test: Antibacterial activity against penicillin-nonsusceptible Streptococcus pneumoniae clinical isolate by broth microdilution method
[37] = test system: Enterococcus faecium; test: Antibacterial activity against vancomycin-susceptible Enterococcus faecium clinical isolate by broth microdilution method
[38] = test system: Enterococcus faecium; test: Antibacterial activity against vancomycin-resistant Enterococcus faecium clinical isolate by broth microdilution method
[39] = test system: Staphylococcus aureus; test: Antibacterial activity against methicillin-susceptible Staphylococcus aureus clinical isolate by broth microdilution method
[40] = test system: Streptococcus pneumoniae; test: Antibacterial activity against penicillin-susceptible Streptococcus pneumoniae clinical isolate by broth microdilution method
[41] = test system: Staphylococcus aureus; test: Antibacterial activity against methicillin-resistant Staphylococcus aureus clinical isolate by broth microdilution method
[42] = test system: Enterococcus faecalis; test: Antibacterial activity against vancomycin-susceptible Enterococcus faecalis clinical isolate by broth microdilution method
[43] = test system: Enterococcus faecium; test: Antibacterial activity against linezolid-resistant Enterococcus faecium 03B1075 by broth microdilution method
[44] = test system: Staphylococcus aureus; test: Antibacterial activity against glycopeptide-intermediate Staphylococcus aureus clinical isolate by broth microdilution method
[45] = test system: Enterococcus faecium; test: Antibacterial activity against linezolid-resistant Enterococcus faecium 03B1078 by broth microdilution method
[46] = test system: Staphylococcus aureus; test: Antibacterial activity against linezolid-resistant Staphylococcus aureus 01A1220 by broth microdilution method
[47] = test system: Enterococcus faecalis; test: Antibacterial activity against […] Enterococcus faecalis ATCC 29212 by broth microdilution method

C[C@H]1COc2c(N3CCN(C)CC3)c(F)cc3c(=O)c(C(=O)O)cn1c23.C[C@H]1COc2c(N3CCN(C)CC3)c(F)cc3c(=O)c(C(=O)O)cn1c23.O [LEVOFLOXACIN]
0.004 µg/mL: MIC50 [12]
0.008 µg/mL: MIC50 [9] | MIC90 [9]
1 µg/mL: MIC50 [10] | MIC90 [10]
0.06 µg/mL: MIC50 [2] | MIC90 [2] | MIC50 [3] | MIC50 [6] | MIC50 [8] | MIC50 [13] | MIC50 [14] | MIC50 [15] | MIC50 [18] | MIC50 [19] | MIC50 [20] | MIC50 [21] | MIC50 [22] | MIC50 [24] | MIC50 [25] | MIC50 [26] | MIC50 [27]
16 µg/mL: MIC90 [1] | MIC90 [4] | MIC90 [7] | MIC90 [17]
32 µg/mL: MIC90 [11] | MIC90 [16]
8 µg/mL: MIC90 [3] | MIC90 [6] | MIC90 [8] | MIC90 [13] | MIC90 [14] | MIC90 [15] | MIC90 [18] | MIC90 [19] | MIC90 [20] | MIC90 [21] | MIC90 [22] | MIC90 [24] | MIC90 [25] | MIC90 [26] | MIC90 [27]
0.015 µg/mL: MIC50 [5] | MIC90 [12]
0.25 µg/mL: MIC90 [5] | MIC50 [16]
0.5 µg/mL: MIC50 [11] | MIC50 [23]
2 µg/mL: MIC50 [1] | MIC50 [4] | MIC50 [7] | MIC50 [17] | MIC90 [23]

CC(=O)NC[C@H]1CN(c2ccc(N3CCOCC3)c(F)c2)C(=O)O1 [LINEZOLID]
32 µg/mL: MIC [29] | MIC [32] | MIC [43] | MIC [45]
8 µg/mL: MIC [35]
4 µg/mL: MIC90 [38]
0.5 µg/mL: MIC50 [31] | MIC50 [36] | MIC [44]
> 32 µg/mL: MIC [28] | MIC [30] | MIC [46]
1 µg/mL: MIC90 [31] | MIC50 [11] | MIC90 [11] | MIC90 [36] | MIC50 [40] | MIC90 [40] | MIC [41] | MIC50 [41] | MIC90 [41]
2 µg/mL: MIC [33] | MIC [10] | MIC50 [10] | MIC90 [10] | MIC50 [34] | MIC90 [34] | MIC50 [16] | MIC90 [16] | MIC [37] | MIC50 [37] | MIC90 [37] | MIC50 [38] | MIC50 [23] | MIC90 [23] | MIC50 [39] | MIC90 [39] | MIC50 [42] | MIC90 [42]

CC1(C)S[C@@H]2[C@H](NC(=O)Cc3ccccc3)C(=O)N2[C@H]1C(=O)O [PENICILLIN G]
0.015 µg/mL: MIC [40] | MIC50 [40] | MIC90 [40]
2 µg/mL: MIC50 [36]
4 µg/mL: MIC90 [36]

CN[C@H](CC(C)C)C(=O)N[C@H]1C(=O)N[C@@H](CC(N)=O)C(=O)N[C@H]2C(=O)N[C@H]3C(=O)N[C@H](C(=O)N[C@H](C(=O)O)c4cc(O)cc(O)c4-c4cc3ccc4O)[C@H](O)c3ccc(c(Cl)c3)Oc3cc2cc(c3O[C@@H]2O[C@H](CO)[C@@H](O)[C@H](O)[C@H]2O[C@H]2C[C@](C)(N)[C@H](O)[C@H](C)O2)Oc2ccc(cc2Cl)[C@H]1O [VANCOMYCIN]
0.25 µg/mL: MIC50 [36] | MIC90 [36] | MIC [40] | MIC50 [40] | MIC90 [40]
2 µg/mL: MIC [47] | MIC90 [31] | MIC50 [16] | MIC90 [16] | MIC90 [41] | MIC50 [42]
0.5 µg/mL: MIC50 [11] | MIC50 [39]
1 µg/mL: MIC [30] | MIC50 [31] | MIC [10] | MIC50 [10] | MIC90 [10] | MIC90 [11] | MIC50 [37] | MIC90 [37] | MIC90 [39] | MIC50 [41]
> 32 µg/mL: MIC [29] | MIC [33] | MIC50 [34] | MIC90 [34] | MIC [35] | MIC50 [38] | MIC90 [38] | MIC [43] | MIC [45]
4 µg/mL: MIC90 [42]
